How the values were obtained:
[1] = Fluorescence excitation and emission spectra in solvents of different polarity; assay type: physicochemical; conditions: for fluorescence increase in CH2Cl2 compared to PBS buffer (pH 7.4): approximate values
Protocol: To validate the solvatochromic properties of the probes, we recorded the fluorescence excitation and emission spectra of probes 1-6 in a 10 μM solution in CH2Cl2, CH3CN, CH3OH, and PBS buffer (pH 7.4, Table 1, Supplementary Table 1). These solvents have different polarities thereby emulating the hydrophobic enzyme-probe binding site environment (Supplementary Figs. 1-6). […] This effect was less prominent for 3 and 4 with a ~ 110-fold fluorescence increase, and for 5 and 6 with a ~ 30-fold fluorescence increase.
Probes 1-6 were prepared into 10 mM DMSO stock solutions and diluted to 10 μM with CH2Cl2, CH3CN, CH3OH, or PBS (pH 7.4). The fluorescence excitation spectra of each probe was measured between 300 and 480 nm for probes 1-4 and 300 and 500 nm for probes 5 and 6. The fluorescence emission spectra of each probe was measured between 480 and 700 nm for probes 1-4 and 500 and 700 nm for probes 5 and 6.

[2] = tested on: MPO activity in human polymorphonuclear neutrophils (hPMN); assay: Wash-free live-cell imaging of probes in hPMN during NETosis; assay type: cell-based; conditions: 100 nM PMA, probe near IC50, 3 h, 37 °C; for MFI (mean fluorescence intensity): whole images
Protocol: With probes 1-6 in hand, we opted for a cell-based screening strategy to find suitable probes to image MPO activity during NETosis (Fig. 1A). In this approach, we stimulated freshly isolated human polymorphonuclear neutrophils (hPMN) with PMA and incubated with probes 1-6 at concentrations near their IC50 for 3 h. […] Subsequently, probes that show a significant ‘’turn-on” fluorescence compared to unstimulated cells are selected and tested for colocalization with an anti-MPO antibody in fixed cells. With this cell-based strategy, potential suitable probes to image MPO activity during NETosis can be immediately identified. Therefore, live hPMN were incubated with PMA and probes 1-6 and imaged directly (Fig. 1B).
Colocalization analysis was performed with JaCoP[34].

MPO [3] = biological target: T1, MPO (Homo sapiens, UniProt P05164); assay: Amplex Red assay of MPO peroxidase activity; assay type: biochemical; conditions: for IC50: Amplex Red assay, t = 30 min, 100 pM MPO, 1 µM H2O2
T1 sequence (P05164 49-745): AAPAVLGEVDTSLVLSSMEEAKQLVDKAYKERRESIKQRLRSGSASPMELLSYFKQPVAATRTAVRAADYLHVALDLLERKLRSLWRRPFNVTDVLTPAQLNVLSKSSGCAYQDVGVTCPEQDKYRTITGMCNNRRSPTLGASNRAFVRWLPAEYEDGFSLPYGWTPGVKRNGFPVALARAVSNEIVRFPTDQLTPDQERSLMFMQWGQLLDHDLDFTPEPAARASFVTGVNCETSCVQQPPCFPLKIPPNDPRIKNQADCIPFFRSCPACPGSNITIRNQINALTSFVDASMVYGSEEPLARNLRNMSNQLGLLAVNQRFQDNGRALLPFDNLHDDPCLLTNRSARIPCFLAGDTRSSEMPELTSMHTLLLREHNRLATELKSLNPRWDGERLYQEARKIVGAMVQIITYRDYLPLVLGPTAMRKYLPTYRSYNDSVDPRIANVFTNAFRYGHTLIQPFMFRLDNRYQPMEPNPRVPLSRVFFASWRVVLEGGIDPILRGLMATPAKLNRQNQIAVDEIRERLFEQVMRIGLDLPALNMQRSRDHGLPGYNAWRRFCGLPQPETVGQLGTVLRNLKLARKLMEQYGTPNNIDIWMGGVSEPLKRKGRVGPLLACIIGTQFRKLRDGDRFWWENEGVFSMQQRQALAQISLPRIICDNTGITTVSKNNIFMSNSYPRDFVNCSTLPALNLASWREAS
Text: Having obtained the fluorescent properties of probes 1-6, we determined their functional properties by the Amplex Red assay as previously reported (Table 1, Supplementary Figs. 1-6)[27]. In this assay, 10-acetyl-3,7-dihydroxyphenoxazine is oxidized by MPO in the presence of H2O2 to resorufin, a highly fluorescent compound with an fluorescence excitation and emission maxima of 571 and 585 nm, respectively. Fortunately, probes 1, 2, 4, 5, and 6 retained similar IC50 values as those previously reported for 2-thioxanthine-based inhibitors despite the presence of the environment-sensitive fluorophores[27],[33]. However, we noticed a slight negative trend in the IC50 of probes containing the shorter ethyl spacer. This effect was more evident in probe 3, which experienced a ~ 4-fold reduction in IC50 values compared to its counterpart probe 4.
MPO peroxidase activity and the determination of inhibitor potencies were performed as described before with minimal changes. In brief, to 78 uL of assay mixture (PBS (pH 7.4), 1 µM H2O2, and 20 µM Amplex Red) were added 2 μL of probe 1-6 in concentrations from 0 to 40 µM in DMSO (final DMSO concentration of 2%) and mixed for 1 min. The reactions were initiated by the addition of 20 μL 500 pM MPO (final MPO concentration of 100 pM) followed by mixing for 5 s. Fluorescent changes (RFU/s) were monitored at room temperature every 20 s for 30 min with excitation and emission filters set at 530 and 580 nm, respectively. Initial rates (V0) were determined using linear regression analysis of the first 600 s corresponding to the linear range of the DMSO control. To calculate IC50 values, V0 and probe concentration were fit to a dose-response curve with a standard Hill slope of -1 using nonlinear regression analysis. The kobs, kinact, and KI values for probe 1 were calculated exactly as described before.

[4] = Chemical stability in cell culture media (HPLC); assay type: physicochemical; conditions: cell culture media with or without serum, 4 and 24 h, 37 °C
Protocol: (§1) Furthermore, we confirmed the chemical stability of probe 1 in cell culture media with or without serum for 4 and 24 h at 37 °C (Supplementary Fig. 7).
(§2) To a stirring solution of the corresponding N-Boc aldehyde B1 or B2 (7.6 mmol) and AcOH (1.2 mmol) in dry CH3OH (30 mL) was added 4-amino-1H-imidazole-5-carboxamide (6.0 mmol). The reaction was stirred for 2.5 h under N2 before NaBH3CN (7.2 mmol) was added in one portion and the mixture was left stirring overnight under N 2. A solution of sat. aq. NaHCO3 was added and most of the CH3OH was removed in vacuo. The residue was extracted with EtOAc and the combined organic layers were dried over MgSO 4, filtered, and the crude product purified by flash silica gel column chromatog raphy (0-10% CH3OH/CH2Cl2) to give C1 or C2. […]
(§3) The solutions were incubated for 5 min and the fluorescence emission spectra was measured between 480 and 600 nm. […]
(§4) Probe 1 was diluted to 400 µM and incubated in CH3CN, RPMI 1640, or RPMI 1640 supplemented with 2% FCS for 0, 4, and 24 h at 37 °C under constant shaking. […] The supernatant was filtered and analyzed by HPLC. […]
(§5) Differentiation was assessed morphologically by fluorescent nuclear staining (Hoechst 33342) and by evaluation of CD11b expre ssion with a rat primary antibody directed against human CD11b (M1/70, Invitrogen, 1:400, 30 min, 4 °C) using a BD FACSVerse Flow Cytometer. Data were analyzed with FlowJo. […]

MPO [5] = biological target: T1, MPO; assay: Fluorescence turn-on of probe with purified MPO; assay type: biochemical; conditions: 1 µM probe, 15 µM MPO, 150 µM H2O2, PBS (pH 7.4)
Protocol: as §1, §2, §3, §4, §5

[6] = tested on: MPO activity in human polymorphonuclear neutrophils (hPMN); assay: Wash-free live-cell imaging of probes in hPMN during NETosis; assay type: cell-based; conditions: 4 µM ionomycin, 1 µM probe, 3 h
[7] = from kobs vs probe concentration

fluorescence increase in CH2Cl2 compared to PBS buffer (pH 7.4) ([1]; 10 μM) | λem ([1]; CH2Cl2, 10 μM) [nm] | λex ([1]; CH2Cl2, 10 μM) [nm] | λem ([1]; PBS (pH 7.4), 10 μM) [nm] | λex ([1]; PBS (pH 7.4), 10 μM) [nm] | IC50 (MPO [3]) [nM] | chemical stability [4] | fluorescence increase with MPO compared to probe alone, ABAH pre-treated MPO or BSA (MPO [5]) | kinact/KI (MPO [3]) [M^−^1s^−^1] | Ki (MPO [3]; [7]) [nM] | kinact (MPO [3]; [7]) [s^−^1] | SMILES | S/B (signal-to-background ratio) [2] | MFI (mean fluorescence intensity) [2] [gray values] | fluorescence increase at λem in CH2Cl2 compared to PBS (pH 7.4) ([1]; supplementary figure legends) [x] | probe signal in ionomycin-stimulated cells [6]
~ 110 fold | 532 | 417 | 600 | 435 | 4570 ± 1830 | – | – | – | – | – | CN(C)S(=O)(=O)c1ccc(NCCn2c(=S)[nH]c(=O)c3[nH]cnc32)c2nonc12 [Probe 3] | 8.9 | 1.5 | – | –
~ 110 fold | 535 | 420 | 600 | 435 | 1090 ± 151 | – | – | – | – | – | CN(C)S(=O)(=O)c1ccc(NCCOCCn2c(=S)[nH]c(=O)c3[nH]cnc32)c2nonc12 [Probe 4] | 7.3 | 1.8 | – | –
~ 300 fold | 510 | 415 | 560 | 457 | 854 ± 44 | chemically stable | ~ 13 fold | 4263 | 1080 ± 73 | 0.0046 ± 0.0001 | CN(C)c1ccc2c3c(cccc13)C(=O)N(CCn1c(=S)[nH]c(=O)c3[nH]cnc31)C2=O [Probe 1] | 16.7 | 6.9 | – | not significantly different from unstimulated background levels
~ 300 fold | 512 | 415 | 560 | 446 | 479 ± 17 | – | – | – | – | – | CN(C)c1ccc2c3c(cccc13)C(=O)N(CCOCCn1c(=S)[nH]c(=O)c3[nH]cnc31)C2=O [Probe 2] | 11.7 | 3.0 | – | –

SMILES | fluorescence increase in CH2Cl2 compared to PBS buffer (pH 7.4) ([1]; 10 μM) | λem ([1]; CH2Cl2, 10 μM) [nm] | λex ([1]; CH2Cl2, 10 μM) [nm] | λem ([1]; PBS (pH 7.4), 10 μM) [nm] | λex ([1]; PBS (pH 7.4), 10 μM) [nm] | IC50 (MPO [3]) [nM] | chemical stability [4] | fluorescence increase with MPO compared to probe alone, ABAH pre-treated MPO or BSA (MPO [5]) | kinact/KI (MPO [3]) [M^−^1s^−^1] | Ki (MPO [3]; [7]) [nM] | kinact (MPO [3]; [7]) [s^−^1] | S/B (signal-to-background ratio) [2] | MFI (mean fluorescence intensity) [2] [gray values] | fluorescence increase at λem in CH2Cl2 compared to PBS (pH 7.4) ([1]; supplementary figure legends) [x] | probe signal in ionomycin-stimulated cells [6]
O=c1[nH]c(=S)n(CCOCCNc2ccc([N+](=O)[O-])c3nonc23)c2nc[nH]c12 [Probe 6] | ~ 30 fold | 517 | 452 | 558 | 488 | 388 ± 35 | – | – | – | – | – | – | < 0.1 | – | –
O=c1[nH]c(=S)n(CCNc2ccc([N+](=O)[O-])c3nonc23)c2nc[nH]c12 [Probe 5] | ~ 30 fold | 522 | 452 | 558 | 473 | 497 ± 86 | – | – | – | – | – | – | < 0.1 | 40 | –
